# Source: US20240270748A1 (Merck Patent GmbH, priority 2021, published 2024)
# What was measured:
# YAP-TEAD interaction = experiment: SK-HEP-1 reporter assay (8xTEAD responsive elements driving NanoLuc luciferase); assay type: cell-based
# In short: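 Reporter read-out: NanoLuc luminescence from 8×TEAD elements stably integrated in SK-HEP-1 cells, after 24 h compound exposure at 37° C. Ten concentrations tested in duplicate, top 30 μM final, 0.3% DMSO; IC50 from curve.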
# NCI-H226 cells = experiment: Viability assay in NCI-H226 (Yap-dependent) cells, CyQuant; assay type: cell-based, human; conditions: class symbols
# Method: (§1) Viability Assay in NCI-H226 (Yap-Dependent) and SW620 Yap KO (Yap Independent) Cells
# (§2) The ability of YAP-TEAD inhibitors to inhibit tumor cell growth was evaluated using two different cell lines: NCI-H226, which is a YAP dependent cell line, and SW620 cells, where YAP and TAZ were knocked out using CRISPR to generate a YAP independent cell line.
# (§3) For the assay, cells were treated in duplicates with the test compounds in a 10-point dose, 1:3 dilution steps, with the top concentration starting at 30 μM (final concentration in assay). After a 96 hour incubation at 37° C., 95% rH, and 5% CO2, a cell-permeant DNA-binding dye that stains only healthy cells (CyQUANT®, Promega) was added to the cells, allowing the quantification of cell viability.
# (§4) Cell Media: The NCI-H226 cells were cultured in the following media: RPMI 1640, +10% FBS, +1× GlutaMAX, +10 mM HEPES, +0.5% Pen/Strep. The SW620-KO cells were cultured in the following media: DMEM/F-12, +10% FBS, +1× GlutaMAX, +10 mM HEPES, +0.5% Pen/Strep.
# (§5) Reagents: The reagents used are listed below:
# (§6) Cell culture: The cells were examined using an inverted microscope to check for health, cell density, etc. To dissociate adherent cells, the monolayer of cells was washed once with pre-warmed PBS. After removing the PBS, 3 ml pre-warmed Accutase was added to a F75 flask, dispersed evenly and the flask was allowed to sit in incubator for ˜4-5 minutes.
# (§7) When a single cell suspension was obtained, 7 ml of prewarmed growth media was added and resuspended with the cells. The cell suspension was transferred to a sterile 15 ml conical centrifuge tube, and spun for 5 min at 300×g, RT. The supernatant was discarded and the pellet was resuspended in 10 ml of pre-warmed growth media.
# (§8) The total cell count was determined, and 20 μl of the desired cell number was added to each well of a 384 well plate using a Multidrop Combi. The plates were then incubated for 24 hours at 37° C., 95% rH, and 5% CO2.
# (§9) Compound treatment: 24 hours after seeding, the cells were treated with compounds.
# (§10) A 1:333 dilution of compounds, diluted in DMSO, was made to get a final concentration of 0.3% DMSO per well. To transfer the compounds to the assay plate, […] was shot from Labcyte low dead volume plates to the cell plates containing 20 μl media/well with the ECHO 555 liquid handling system.
# (§11) After treatment, the cells were fed with 20 μl fresh pre-warmed assay media using a Multidrop combi.
# (§12) The assay plates were then incubated for 96 h at 37° C., 95% rH, and 5% CO2.
# (§13) 96 h after treatment 30 μl of CyQuant® reagent was added to the assay plates using a Multidrop combi in the dark. The plates were then incubated for 1 hour at 37° C., 95% rH and 5% CO2. Thereafter, the assay plates were removed from the incubator and allowed to equilibrate to RT for 30 min in the dark without lid. Finally, they were measured using an EnVision microplate reader with a FITC bottom read program.
# SW620 Yap KO cells = experiment: Viability assay in SW620 Yap KO (Yap independent) cells, CyQuant; assay type: cell-based; conditions: Homo sapiens, SW-620, 96 h
# Method: as §1, §2, §3, §4, §5, §6, §7, §8, §9, §10, §11, §12, §13
# [1] = SK-HEP-1 reporter assay, class symbols
# [2] = Homo sapiens, SK-HEP1, SK-HEP-1 reporter assay, class symbols
# [3] = n.d. = value not detectable below threshold given in parentheses, ND = not determinable within the entire range
# [4] = n.d. = value not detectable below threshold given in parentheses
# [5] = Homo sapiens, SK-HEP1, SK-HEP-1 reporter assay, n.d. = value not detectable below threshold given in parentheses
"IC50 (NCI-H226 cells; Homo sapiens, NCI-H226, 96 h)",IC50 (YAP-TEAD interaction; [2]),IC50 (SW620 Yap KO cells; [3]),IC50 (SW620 Yap KO cells; [4]),SMILES,other results
> 10000 nM,–,–,–,"Cn1cnc2c1c1cc(C3CC(Oc4cncnc4)=NO3)ccc1n2-c1ccc(C(F)(F)F)cc1 (stereo not drawn) [Example 40, 5-[(5-{1-methyl-4-[4-(trifluoromethyl)phenyl]-1H,4H-imidazo[4,5-b]indol-7-yl}-4,5-dihydro-1,2-oxazol-3-yl)oxy]pyrimidine]",IC50 (YAP-TEAD interaction; [1]): 10 to 100 nM; IC50 (SW620 Yap KO cells; class symbols): > 30000 nM
1 to 100 nM,10 to 100 nM,> 30000 nM,–,"Cc1snc2c1c1cc(C(=O)N[C@](C)(CO)c3ccccc3)ccc1n2-c1ccc(C(F)(F)F)cc1 [Example C80, N-[(2S)-1-hydroxy-2-phenylpropan-2-yl]-3-methyl-8-[4-(trifluoromethyl)phenyl]-8H-[1,2]thiazolo[3,4-b]indole-5-carboxamide]",–
1 to 100 nM,10 to 100 nM,> 30000 nM,–,"CN(c1ccc2c(c1)c1cn(C)nc1n2-c1ccc(C(F)(F)F)cc1)S(C)(=O)=O [Example C20, N-methyl-N-{2-methyl-8-[4-(trifluoromethyl)phenyl]-2H,8H-pyrazolo[3,4-b]indol-5-yl}methanesulfonamide]",–
1 to 100 nM,10 to 100 nM,> 30000 nM,–,Cc1snc2c1c1cc(C(=O)NCCn3ccnc3)ccc1n2-c1ccc(C(F)(F)F)cc1 [Example C121],–
1000 to 10000 nM,100 to 10000 nM,–,> 30000 nM,"[2H]C1([2H])C(n2c3ccc(C(=O)NC)cc3c3cn(C)nc32)C([2H])([2H])C([2H])([2H])C([2H])([2H])C1([2H])[2H] [Example C194, 8-[(2,2,3,3,4,4,5,5,6,6-^2H10)cyclohexyl]-N,2-dimethyl-2H,8H-pyrazolo[3,4-b]indole-5-carboxamide]",–
1 to 100 nM,10 to 100 nM,> 3200 nM,–,"Cc1snc2c1c1cc(C(=O)N[C@@H](CO)C3CCC3)ccc1n2-c1ccc(C(F)(F)F)cc1 [Example C91, N-[(1R)-1-cyclobutyl-2-hydroxyethyl]-3-methyl-8-[4-(trifluoromethyl)phenyl]-8H-[1,2]thiazolo[3,4-b]indole-5-carboxamide]",–
1 to 100 nM,10 to 100 nM,–,> 3000 nM,"C[C@@H](NC(=O)c1ccc2c(c1)c1nn(C)nc1n2-c1ccc(C(F)(F)F)cc1)c1cccc(N)n1 [Example C181, N-[(1R)-1-(6-aminopyridin-2-yl)ethyl]-2-methyl-4-[4-(trifluoromethyl)phenyl]-2H,4H-[1,2,3]triazolo[4,5-b]indole-7-carboxamide]",–
1 to 100 nM,–,–,–,"Cn1cc2c3cc(C(=O)N=[S@@](=O)(CCO)Cc4ccncc4)ccc3n(-c3ccc(C(F)(F)F)cc3)c2n1 (single isomer, unassigned) [Example C254]",IC50 (YAP-TEAD interaction; [5]): > 300 nM; IC50 (SW620 Yap KO cells; class symbols): 1000 to 10000 nM
1 to 100 nM,10 to 100 nM,> 30000 nM,–,"Cn1nc2c3cc(C(=O)NC[C@@H](O)C(F)(F)F)ccc3n(-c3ccc(C(F)(F)F)cc3)c2n1 [Example C160, 2-methyl-N-[(2R)-3,3,3-trifluoro-2-hydroxypropyl]-4-[4-(trifluoromethyl)phenyl]-2H,4H-[1,2,3]triazolo[4,5-b]indole-7-carboxamide]",–
1 to 100 nM,10 to 100 nM,–,> 30000 nM,"Cn1nc2c3cc(C(=O)N=S(C)(=O)CCO)ccc3n(-c3ccc(C(F)(F)F)cc3)c2n1 (single isomer, unassigned) [Example C192]",–
1 to 100 nM,10 to 100 nM,–,> 30000 nM,"Cn1nc2c3cc(C(=O)N[C@@](C)(CO)c4ccccn4)ccc3n(-c3ccc(C(F)(F)F)cc3)c2n1 (single isomer, unassigned) [Example C189]",–
1 to 100 nM,10 to 100 nM,> 3200 nM,–,"Cc1snc2c1c1cc(C(=O)NCC(C)(C)O)ccc1n2-c1ccc(C(F)(F)F)cc1 [Example C52, N-(2-hydroxy-2-methylpropyl)-3-methyl-8-[4-(trifluoromethyl)phenyl]-8H-[1,2]thiazolo[3,4-b]indole-5-carboxamide]",–
100 to 1000 nM,–,> 30000 nM,–,"Cn1cc2c3nc(C(=O)N=S(C)(C)=O)ccc3n(-c3ccc(C(F)(F)F)cc3)c2n1 [Example C108, N-[dimethyl(oxo)-λ^6-sulfanylidene]-4-methyl-7-[4-(trifluoromethyl)phenyl]-4,5,7,12-tetraazatricyclo [6.4.0.0^∧{^2,6}]dodeca-1(8),2,5,9,11-pentaene-11-carboxamide]","IC50 (YAP-TEAD interaction; Homo sapiens, SK-HEP1, SK-HEP-1 reporter assay, n.d. = value not detectable below threshold given in parentheses, ND = not determinable within the entire range): > 30000 nM"
1 to 100 nM,10 to 100 nM,> 3200 nM,–,"CC[C@H](CO)NC(=O)c1ccc2c(c1)c1c(C)snc1n2-c1ccc(C(F)(F)F)cc1 [Example C77, N-[(2R)-1-hydroxybutan-2-yl]-3-methyl-8-[4-(trifluoromethyl)phenyl]-8H-[1,2]thiazolo[3,4-b]indole-5-carboxamide]",–
100 to 1000 nM,10 to 100 nM,–,> 30000 nM,"C[C@@H](NC(=O)c1ccc2c(c1)c1nn(C)nc1n2-c1ccc(C(F)(F)F)cc1)c1ccccn1 [Example C176, 2-methyl-N-[(1R)-1-(pyridin-2-yl)ethyl]-4-[4-(trifluoromethyl)phenyl]-2H,4H-[1,2,3]triazolo[4,5-b]indole-7-carboxamide]",–
–,–,> 30000 nM,–,"Cn1cc2c3cc(C(=O)O)cnc3n(-c3ccc(C(F)(F)F)cc3)c2n1 [Example C110, 4-methyl-7-[4-(trifluoromethyl)phenyl]-4,5,7,9-tetraazatri-cyclo[6.4.0.0^2,6]dodeca-1(8),2,5,9,11-pentaene-11-carboxylic acid]",IC50 (YAP-TEAD interaction; [1]): 10 to 100 nM; IC50 (NCI-H226 cells; 96 h): 100 to 1000 nM
1 to 100 nM,10 to 100 nM,> 30000 nM,–,"COCC[C@@H](CO)NC(=O)c1ccc2c(c1)c1c(C)snc1n2-c1ccc(C(F)(F)F)cc1 (single isomer, unassigned) [Example C89]",–
1 to 100 nM,10 to 100 nM,> 30000 nM,–,"Cc1snc2c1c1cc(C(=O)NC3CC3)ccc1n2-c1ccc(C(F)(F)F)cc1 [Example C41, N-cyclopropyl-3-methyl-8-[4-(trifluoromethyl)phenyl]-8H-[1,2]thiazolo [3,4-b]indole-5-carboxamide]",–
100 to 1000 nM,10 to 100 nM,> 3000 nM,–,"Cn1cc2c3cc(C(=O)O)ccc3n(-c3ccc(C(F)(F)F)cn3)c2n1 [Example C126, 2-methyl-8-[5-(trifluoromethyl)pyridin-2-yl]-2H,8H-pyrazolo[3,4-b]indole-5-carboxylic acid]",–
100 to 1000 nM,10 to 100 nM,–,> 3000 nM,"Cn1nc2c3cc(C(=O)N[C@H](CCO)c4ccccn4)ccc3n(-c3ccc(C(F)(F)F)cc3)c2n1 (single isomer, unassigned) [Example C241]",–
1 to 100 nM,–,–,> 3000 nM,"Cn1cc2c3cc(C(=O)N=S(=O)(CCO)Cc4ccncc4)ccc3n(-c3ccc(C(F)(F)F)cc3)c2n1 (stereo not drawn) [Example C216, N-[(2-hydroxyethyl)(oxo)[(pyridin-4-yl)methyl]-λ^6-sulfanylidene]-2-methyl-8-[4-(trifluoromethyl)phenyl]-2H,8H-pyrazolo[3,4-b]indole-5-carboxamide]",IC50 (YAP-TEAD interaction; [5]): > 9500 nM
1000 to 10000 nM,100 to 10000 nM,> 3200 nM,–,"C[C@@H](CCN(C)C(=O)c1ccc2c(c1)c1cn(C)nc1n2-c1ccc(C(F)(F)F)cc1)NC(=O)c1ccc2c(c1)c1cn(C)nc1n2-c1ccc(C(F)(F)F)cc1 [Example C48, N,2-dimethyl-N-[(3S)-3-({2-methyl-8-[4-(trifluoromethyl)phenyl]-2H,8H-pyrazolo[3,4-b]indol-5-yl}formamido)butyl]-8-[4-(trifluoromethyl)phenyl]-2H,8H-pyrazolo[3,4-b]indole-5-carboxamide]",–
